From patent US9802880B2, “Cannabigerol derivatives” (VIVACELL BIOTECHNOLOGY ESPAÑA S.L., priority 2014, dated 2017)

Assays:
[1] = test system: Ccl2, iNOs, TNFα, IFNg, IL-1b and IL-17; assay: EAE, pro-inflammatory gene expression in spinal cord (real-time PCR); format: in vivo, C57BL/6 mice; conditions: EAE mice, 10 mg/kg, vs EAE+vehicle, FIG. 7
Method: Gene expression of inflammatory markers including CCL2, IFNγ, INOS, TNFα, IL-1β and IL-17 in the spinal cord was down regulated in EAE+compound (III) (10 mg/kg) group compared with EAE+Vehicle mice. Expression levels were calculated using the 2^−ΔΔct method.
EAE was induced in female C57BL/6 mice at 6-8 weeks of age by subcutaneous immunization with myelin oligodendrocyte glycoprotein polypeptide (MOG35-55) (300 μg) and 200 μg of Mycobacterium tuberculosis (H37Ra Difco, Franklin Lakes, N.J., USA) in a 1:1 mix with […] Freund's adjuvant (CFA, Sigma-Aldrich, Madrid, Spain). […] The mice were examined daily for clinical signs of EAE and disease scores were measured as follows: 0, no disease; 1, limp tail; 2, limp tail and hind limb weakness; 3, hind limb paralysis; 4, hind limb and front limb paralysis; 5, moribund and death. […]
Total RNA was isolated from striata (3NP model) or spinal cord (EAE model) using RNeasy Lipid Tissue Mini Kit (Qiagen, GmbH). The total amount of RNA extracted was quantitated by spectrometry at 260 nm and its purity from the ratio between the absorbance values at 260 and 280 nm. […] The iQ™ SYBR Green Supermix (Bio-Rad) was used to quantify mRNA levels for COX-2, TNF-α, IL-6, IL-17, IL-1β, IFN-γ, CCL-2 or iNOS depending on disease's model. […] Expression levels were calculated using the 2^−ΔΔct method.

EAE mice = assay: Experimental autoimmune encephalomyelitis (EAE), clinical score; format: in vivo, C57BL/6 mice
Method: C57BL/6 mice were immunized with MOG35-55 and their clinical score evaluated daily. Mice were treated daily with compound (III) (10 mg/kg) on day 6 post-immunization and the 21 following days. […] Values are expressed as means±SEM for 10 animals per group.
C57BL/6 mice were immunized with MOG35-55 and their clinical score evaluated daily. Mice were treated daily with compound (XII) (5 mg/kg) on day 6 post-immunization and the 21 following days. […] Values are expressed as means±SEM for 6 animals per group.
EAE was induced in female C57BL/6 mice at 6-8 weeks of age by subcutaneous immunization with myelin oligodendrocyte glycoprotein polypeptide (MOG35-55) (300 μg) and 200 μg of Mycobacterium tuberculosis (H37Ra Difco, Franklin Lakes, N.J., USA) in a 1:1 mix with […] Freund's adjuvant (CFA, Sigma-Aldrich, Madrid, Spain). On the same day and 2 days later, mice were injected intraperitoneally (ip) with 200 ng of pertussis toxin (Sigma-Aldrich, Madrid, Spain) in 0.1 ml PBS. […] Treatment started at day 6 post-immunization (p.i.) and consisted in daily injections of compounds III (FIG. 6) and XII (FIG. 8) at the indicated doses or of the vehicle alone (DMSO/PBS) for the following 21 days. The mice were examined daily for clinical signs of EAE and disease scores were measured as follows: 0, no disease; 1, limp tail; 2, limp tail and hind limb weakness; 3, hind limb paralysis; 4, hind limb and front limb paralysis; 5, moribund and death. All animals were sacrificed 28 days (p.i.) for further analysis. Once sacrificed, animals were dissected and their spinal cords were rapidly removed and quickly frozen in RNAlater (Sigma-Aldric, Germany).

6-OHDA-lesioned mice = assay: Parkinson's disease 6-OHDA model, rotarod and actimeter; format: in vivo, C57BL/6 mice; conditions: 6-OHDA mice, chronic intraperitoneal treatment 10 mg/ml, 14 days, FIG. 13
Method: C57BL/6 mice were unilaterally injected intracerebroventricullarly with 6-hydroxydopamine (6-OHDA) or saline (control mice) and subjected to chronic intraperitoneal treatment with compound III (10 mg/ml) or vehicle (14 days), starting 16 h after the 6-OHDA injection. Motor coordination was evaluated by rotarod performance and motor activity was evaluated using a computer-aided actimeter. Values are expressed as means±SEM for 6 animals per group.
C57BL/6 mice pretreated intracerebroventricularly (i.c.v.) were anesthetized with an intraperitoneal (i.p.) injection of 200 mg′kg of 2,2,2-tribromoethanol (Sigma-Aldrich) and placed in a stereotaxic frame with a mouse adapter (David Kopf Instruments, Tujunga, Calif., USA). […] Motor coordination was evaluated in the rotarod test (Ugo Basile, Rome, Italy) at crescent speed. […] The latency to fall off the rod was measured on consecutive days in lesioned mice following the compound III administration or vehicle control. Motor activity (ambulatory activity, mean velocity, resting time, fast movements and number of rearings) was evaluated using a computer-aided actimeter (FIG. 13).

CCCCCC1=C(NCC)C(=O)C(C/C=C(\C)CCC=C(C)C)=C(O)C1=O [Compound III, 6-(3,7-dimethyl-octa-2,6-dienyl)-5-hydroxy-3-pentyl-2-ethylamino-[1,4]benzoquinone]
expression of proinflammatory genes Ccl2, iNOs, TNFα, IFNg, IL-1b and IL-17 in the spinal cord [1]: significant decrease | clinical manifestations of EAE (EAE mice; 10 mg/kg daily from day 6 post-immunization for 21 days, FIG. 6): clearly attenuated | EAE clinical score throughout the experiment (day 6-day 28) (EAE mice; 10 mg/kg daily, score scale 0-5, vehicle-treated mice reached 2.5): < 1.3 | day on which the disease peaked (EAE mice; 10 mg/kg daily, vehicle-treated mice peaked by day 16): 17 day post-injection | PPARg transactivation (luciferase activity, fold induction over untreated cells) (PPARg): most active compounds | motor symptoms (ambulatory activity, mean velocity, resting time, fast movement, number of rearing, rotarod performance) (6-OHDA-lesioned mice): almost completely suppressed
